In data set [1] the test system is Glc-6-Pase mRNA in the liver. In words: Hepatic Glc-6-Pase mRNA by qRT-PCR at end of clamp after ICV infusion. Type of data set: in vivo, rat. As to the method:
(§1) Total RNA was extracted following Clontech's protocol. First-stranded cDNA was synthesized from 1 μg of total RNA using Superscript III (Gibco, Gaithersburg, Md.). Hepatic glucose-6-phosphatase (Glc-6-Pase) and phosphoenolpyruvate carboxykinase (PEPCK) mRNA abundance were assessed by qRT-PCR as described previously (Buettner et al., 2005). Quantification of these peptides and their copy number was normalized for GAPDH and 18S to correct for loading irregularities. The data presented are those normalized by GAPDH.

The next data set relates to PEPCK mRNA in the liver. In words: Hepatic PEPCK mRNA by qRT-PCR at end of clamp after ICV infusion. It counts as in vivo, rat. The settings on record: ICV infusion for 6 h, end of clamp (Example 1). The method, then: as §1
The subject of data set [2] is Sprague-Dawley rats. The data set can be described thus: ICV infusion of IGF-1, IGFBP-3 or NLS mutant with basal and hyperinsulinemic clamp. Type of data set: in vivo, rat. The settings on record: for Glycogen synthesis, Basal / Glycolysis, Basal / HGP, Basal: basal period; for GIR, Clamp: hyperinsulinemic clamp 3 mU/kg/min; for FFA: last 60 min; for whole body glucose disposal / peripheral glucose uptake (Rd) compared to controls: final 60 min; for infused human peptide in the rat periphery: after ICV infusion. The text has this:
Young (3 mo old, n=6 in each group), male Sprague-Dawley rats (Charles River Laboratories, Wilmington, Mass.) were used for this study. Rats were housed in individual cages and were subjected to a standard light (6:00 AM to 6:00 PM)—dark (6:00 PM to 6:00 AM) cycle. All rats were fed ad libitum using regular rat chow that consisted of 64% carbohydrate, 30% protein, and 6% fat with a physiological fuel value of 3.3-kcal/g chow. In the rats that received ICV infusions, 2 to 4 weeks before the in vivo study, the rats were anesthetized by inhalation of isoflurane and a cannula was placed ICV in the third ventricle for infusions of IGF-1, IGFBP-3 or IGFBP-3 mutant or artificial cerebrospinal fluid (aCSF), as previously described (Muzumdar et al., 2003) (FIG. 1). Briefly, a 26-gauge stainless steel guide cannula (Plastics One, Roanoke, Va.) was chronically implanted into the third ventricles using the following coordinates from bregma: anterior-posterior; +0.2 mm dorsal-ventral; −9.0 mm medial-lateral; 0.0 directly on the mid-sagittal suture, followed by a 28-gauge dummy cannula, inserted to prevent clogging of the guide cannula. The implant was secured to the skull with Caulk Grip dental cement, and the skin was closed over the implant using wound clips. The recovery of rats from the surgical stress was monitored with daily weight, food intake, and movement.
Upon recovery of body weight, usually a week, indwelling catheters were placed in the right internal jugular vein and in the left carotid artery (Muzumdar et al., 2003). The venous catheter was extended to the level of the right atrium, and the arterial catheter was advanced to the level of the aortic arch. Recovery was continued until body weight was within 3% of the pre-operative weight (˜4-6 days). In the rats that received peripheral IGFBP-3, only the vascular catheters were placed.
Studies were performed in unrestrained rats using the insulin clamp technique, in combination with high performance liquid chromatography-purified [3-^3H]glucose and [U-^14C]lactate infusions, as described previously (Liu et al., 1998). Food was removed for ˜5 h before the in vivo protocol. All studies lasted 360 min and included a 120-min equilibration period, a 120-min basal period for assessment of the basal glucose turnover, and a 120-min hyperinsulinemic clamp period. All rats received ICV infusions (bolus followed by continuous ICV infusions of IGF-1, IGFBP-3, IGFBP-3 mutant or aCSF, depending on the group) over the entire 6 hours of the study. At the beginning of the basal period and 120 min before starting the glucose/insulin infusions, a primed-continuous infusion of high performance liquid chromatography-purified [3-^3H]glucose (NEN Life Science Products, Boston, Mass.; 20 μCi of bolus, 0.2 μCi/min) was initiated and maintained throughout the remaining 4 h of the study. In the final 2 hours of the study, the rats were subjected to hyperinsulinemic clamp. The protocol followed during the insulin clamp study was similar to that previously described (Liu et al., 1998). Briefly, a primed-continuous infusion of regular insulin (3 milliunits/kg·min) was administered, and a variable infusion of a 25% glucose solution was started and periodically adjusted to clamp the plasma glucose concentration at 7-8 mM. To prevent endogenous insulin secretion and in order to control for possible effects of ICV infusions on the endocrine pancreas, somatostatin (1.5 μg/kg·min) was also infused in all the groups. [U-^14C]Lactate (5 μCi of bolus/0.25 μCi/min) was infused during the last 10 min of the study.
A bolus of hIGF-1 (0.3 mcg, a gift from Tercica, South San Francisco) was followed by a continuous infusion over 6 hours (total dose of 1 mcg, 0.06 μg/kg/hr).
A bolus of non glycosylated hIGFBP-3 (1.25 μg, generously provided by Celtrix, Mountain View Calif.) was followed by a continuous infusion over 6 hours (total dose of 5.25 mcg, 0.26 μg/kg/hr). […]

The next data set concerns NIT cells. The data set can be described thus: Survival, STAT-3 and ERK activation in NIT cells. It counts as cell-based. From the text: Z-humanin, […] (SEQ ID NO:19).
Data set [3] has as its system pAKT and pSTAT-3 in hepatocytes. In words: Western blot of Phospho-STAT3 and Phospho-AKT in primary hepatocytes. It counts as cell-based, rat. The method, then:
Single-cell suspensions of hepatocytes were obtained from perfusions of Sprague-Dawley rats using the procedure of Berry and Friend (1969) and the perfusion mixture of Leffert et al (1979). Hepatocyte glucose production was estimated after a 24 hr treatment with HN, F6A and saline as described before (Berg et al. 2001). In a separate set of experiment, hepatocytes were lysed, and protein extracted in RIPA lysis buffer at 30, 60 and 360 min post treatment with FIN, F6A and saline. The cell lysates were then subject to western blotting for Phospho-STAT3 (Tyr705), total-STAT3, Phospho-AKT (Ser473), and total-AKT expression (antibodies purchased from Cell Signaling, #9131, #9132, #9271, #9272).

A further data set concerns the target IGF-1 (Homo sapiens, UniProt P05019). The data set can be described thus: Western ligand blots with 125I-labeled IGF-1. Type of data set: binding. The settings on record: data not shown.
The test system of data set [4] is Sprague-Dawley rats. The data set can be described thus: Intravenous infusion of humanin or analogs during hyperinsulinemic clamp. It counts as in vivo, rat. The settings on record: IV during hyperinsulinemic clamp. As to the method:
To study the acute effects of an infusion of IGFBP-3, two groups of awake, unstressed, chronically catheterized Sprague-Dawley rats (˜300 g) were studied for 300 min (n=3 in each group) under hyperinsulinemic clamp (as previously described). From 120 min the rats received a primed continuous infusion of humanin (0.375 mg/kg/hr) or saline (control) for an additional 2 h. Plasma samples for determination of [3H]glucose and [3H] water specific activities were obtained at 10-min intervals during the basal and clamp periods. Steady state conditions for the plasma glucose concentration and specific activity were achieved within 90 min in all the studies. Plasma samples for determination of HN, insulin and FFA concentrations were collected at 30-min intervals throughout the study. All determinations were also performed on portal vein blood obtained at the end of the experiments. The total amount of blood drawn during the entire study for various assays is ˜3 cc. After separation of plasma (subsequently used for analysis), the red blood cells were reconstituted in saline and infused back into the animal.
To determine if peripheral infusion of the humanin analog colivelin affects insulin action, saline or colivelin (one hundredth of the dose of humanin) was infused intravenously during hyperinsulinemic clamp to two groups of rats that were matched for body weight (˜300 gm), visceral fat (˜3.5 grams), basal glucose (˜135 mg % or 7 mM). Colivelin increased hepatic insulin sensitivity by 33% while peripheral glucose uptake was unchanged (FIG. 14).
A primed-continuous ICV infusion of HN, F6A-HN (total dose of 20 μg), STAT-3 inhibitor (75 pmol) (Buettner et al. 2006), or aCSF was initiated at t=0 and maintained for the remainder of the experiment (FIG. 15A). Pancreatic insulin-clamp studies or euglycemic-hyperinsulinemic clamps were performed in conscious, unrestrained, catheterized mice for last 120 minutes as described previously (Bahar et al. 2006, Muzumdar et al. 2006). In the intra-venous group, HN, F6A, Colivelin, and HNGF6A were infused intravenously and hyperinsulinemic clamps were performed as described previously (Loeb et al. 2005). Estimation of glucose, glucose fluxes, insulin, FFA were done as described previously (Loeb et al. 2005). HN measurements were performed by an in-house, ELISA utilizing affinity purified humanin antibodies that recognize both human and rat humanin and has a limit of detection of 0.1 ng/ml (Hwang, and Cohen personal communication).

Where [5] appears, read: ICV IGF-1 1 μg over 6 h, hyperinsulinemic clamp.
The mark [6] stands for this setting: ICV infusion, hyperinsulinemic clamp.
The mark [7] stands for this setting: ICV IGFBP-3 or NLS mutant over 6 h.
[8] abbreviates: ICV IGFBP-3 or NLS mutant over 6 h, hyperinsulinemic clamp.
[9] abbreviates: humanin 0.375 mg/kg/hr, colivelin one hundredth of the dose of humanin.

Where no end group is shown, it is not given here.

IGF-1, sequence (P05019 49-118): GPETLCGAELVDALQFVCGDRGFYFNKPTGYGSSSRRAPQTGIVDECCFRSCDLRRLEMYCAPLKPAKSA

Turning to “IGF-1: hIGF-1, Insulin-like growth factor-1, a gift from Tercica”, in data set [1] (ICV IGF-1, end of clamp), the “expression of G-6Pase lower than aCSF” value is on record as 3 fold. In data set [1] (ICV infusion for 6 h, end of clamp (Example 1)), the “expression of G-6Pase in the liver, ratio to GAPDH” value came to 2.6 ±0.6. For the same substance, the “PEPCK mRNA in the liver, ratio to GAPDH” value with PEPCK mRNA in the liver worked out at 3.4 ±0.6. For the same substance, in the data set with Sprague-Dawley rats [2] (ICV IGF-1 1 μg over 6 h), the “Glycogen synthesis, Basal” value was determined as 4.87 ± 0.87; the “Glycolysis, Basal” value is reported as 7.02 ± 0.93 mg/kg/min; the “HGP, Basal” value is listed as 12.4 ± 1.65 mg/kg/min; the “GIR, Clamp” value worked out at 19.08 ± 1.55 mg/kg/min. For the same substance, in the data set with Sprague-Dawley rats [2] (setting [5]), the “Glycogen synthesis, Clamp” value is 8.09 ± 0.67; the “Glycolysis, Clamp” value is reported as 13.53 ± 1.17 mg/kg/min; the “HGP, Clamp” value was found to be 2.49 ± 0.54 mg/kg/min; the “Rd, Clamp” value is 21.62 ± 0.74 mg/kg/min. Further, the FFA in the data set with Sprague-Dawley rats [2] (setting [5]) came out at 0.23 ± 0.02 mEq/l. Further, the “IGF-1, human” value in the data set with Sprague-Dawley rats [2] (ICV IGF-1 1 μg over 6 h, peripheral plasma) is 0 ng/mL. The “improvement in hepatic insulin action (lower HGP than controls)” value with Sprague-Dawley rats [2] (ICV IGF-1, insulin clamp 3 mU/kg/min) is 50%. Also, in the data set with Sprague-Dawley rats [2] (setting [6]), the gluconeogenesis stood at 0.54 ± 0.2 mg/kg/min, the “glycogenolysis / hepatic glucose fluxes compared to controls” value is listed as “marked decrease”, the “insulin induced suppression of FFA compared to controls” value is given as “significantly higher” and the “whole body glucose disposal / peripheral glucose uptake (Rd) compared to controls” value is listed as “tended to augment”. Further, in the data set with Sprague-Dawley rats [2], the “infused human peptide in the rat periphery” value (from here on “infused human peptide”) is recorded as “No hIGF-1 was detected”. In the data set on Sprague-Dawley rats [2] (listed as human IGF-1), the “infused human peptide” value is given as “No human IGF-1, hIGFBP-3 or NLS-IGFBP-3 was identified”.

As to “MAKRGLNCLPHQVSEIDLSVQKRI (Danio rerio) [Z-humanin]”, the “potency in survival, STAT-3 activation and ERK activation relative to humanin” value in the data set on NIT cells was “two-fold greater potency than humanin”.

For the substance “MAPRGASCLLLLTGEIDLPVARRA (Humanin analog HNGF6AK21A)”, the “potency in survival, STAT-3 activation and ERK activation relative to humanin” value with NIT cells is “much greater potency than humanin”.

On to “MAPRGASCLLLLTSEIDLPVKRRA [F6A HN, maprgascll lltseidlpv krra]”, for which the “pAKT or pSTAT-3 in hepatocytes” value in data set [3] is “did not elicit significant changes”.

As for “NLS: non-glycosylated NLS mutant of IGFBP-3 with two amino acid substitutions (K228E and R230G)”, in the data set on Sprague-Dawley rats [2] (setting [7]), the “Glycogen synthesis, Basal” value is reported as 5.34 ± 0.38; the “Glycolysis, Basal” value was 7.40 ± 0.71 mg/kg/min; the “HGP, Basal” value is reported as 13.00 ± 0.72 mg/kg/min; the “GIR, Clamp” value worked out at 11.98 ± 1.14 mg/kg/min. Besides, in the data set with Sprague-Dawley rats [2] (setting [8]), the “Glycogen synthesis, Clamp” value is 6.93 ± 0.37; the “Glycolysis, Clamp” value is recorded as 10.44 ± 0.96 mg/kg/min; the “HGP, Clamp” value turned out to be 5.37 ± 0.65 mg/kg/min; the “Rd, Clamp” value is listed as 17.38 ± 1.11 mg/kg/min. The FFA in the data set with Sprague-Dawley rats [2] (setting [8]) is given as 0.35 ± 0.05 mEq/l. For the same substance, in the data set on Sprague-Dawley rats [2] (ICV IGFBP-3 or NLS mutant over 6 h, peripheral plasma), the h-IGFBP-3 was determined as 0 ng/mL. Further, in the data set with Sprague-Dawley rats [2] (setting [6]), the “glycogenolysis / hepatic glucose fluxes compared to controls” value was “no changes in glucose fluxes compared to controls” and the “whole body glucose disposal / peripheral glucose uptake (Rd) compared to controls” value is “did not result in significant changes”. The “infused human peptide” value in the data set on Sprague-Dawley rats [2] was “No human IGF-1, hIGFBP-3 or NLS-IGFBP-3 was identified”. In the data set with IGF-1, the “binding to 125I-labeled IGF-1” value is listed as “bound equally”.

For the substance “sallrsipap agasrllllt geidlp (SALLRSIPAPAGASRLLLLTGEIDLP; Humanin analog colivelin)”, the “HGP / hepatic insulin action” value in the data set on Sprague-Dawley rats [4] (HN 0.375 mg/kg/hr, Colivelin 0.00375 mg/kg/hr) is “significant further enhancement in hepatic insulin action”. Besides, in the data set with Sprague-Dawley rats [4] (setting [9]), the “increase in hepatic insulin sensitivity” value was determined as 33% and the peripheral glucose uptake result is on record as “unchanged”.

(Values after patent US9034825B2, “Treatment of myocardial injury with humanin analogs” (Albert Einstein College of Medicine of Yeshiva University, priority 2007, dated 2015).)
